Test results taken from patent US11628198B2, “Methods for prevention and treatment of acute renal injury” (Cornell University, priority 2008, dated 2023).

Tests used:
Type in all cases: in vivo, rat
[1] = tested on: renal mitochondria; test: I/R model: respiration of isolated renal mitochondria; settings: after 45 min ischemia, pretreatment
Description: Results. The effects of the aromatic-cationic peptides of the invention on a model of ARI caused by ischemia-reperfusion were investigated. Renal mitochondria were isolated in accordance with the procedures described above and oxygen consumption was measured.
State 3 respiration was initiated with the addition of ADP.

[2] = tested on: radiocontrast dye-induced renal failure; test: CIN, indomethacin/L-NAME/iothalamate model, Experiment 1
Description: Animal Model: A model of radiocontrast dye-induced renal failure as described by Agmon et al. J Clin Invest 94:1069-1075 (1994) in this Example. As in humans, radiocontrast dye is generally non-toxic when administered to animals with normal renal function. However, radiocontrast dye can induce ARI in animals with impaired renal function. In this model, impaired renal function was induced by the administration of indomethacin (10 mg/kg) and L-NAME (10 mg/kg). The animals were divided into 3 groups: • 1. Group (1) control (n=8) • 2. Group (2) Indomethcin/L-NAME (given 15 min apart) followed by iothalamate (AngioConray 6 ml/kg) (n=7) • 3. Group (3) SS-31 (3 mg/kg, ip) was given 15 min prior to administration of indomethacin/L-NAME/iothalamate, and a second dose of SS-31 (3 mg/kg) was repeated immediately after drug exposure (n=9)
Experimental Protocol: Rats were kept in metabolic cages (Nalge Co., Rochester, N.Y.) with free access to tap water and standard rat chow. After a baseline 24-h urinary collection, the rats were anesthetized with a mixture of ketamine (90 mg/kg, i.p.) and xylazine (4 mg/kg, i.p.). The left femoral vein and artery were cannulated and a baseline blood sample drawn (1 ml) for measurement of creatinine level. The animals then received the various drug treatments as indicated above. Iothalamate Meglumine 60% (contrast dye; AngioConray 6 ml/kg) was then injected through the arterial cannula. The left femoral artery was then ligated and the cannula removed. Rats were then returned to the metabolic cages for another 24-h urine collection. […]
Renal Function: Renal function was assessed by determining GFR at baseline and 24 h following dye administration. […] Creatinine clearance was analyzed by measuring plasma (Pcr), urinary creatinine (Ucr) levels (Bioassay Systems; DICT-500) and urine volume.
Renal Histology: Kidneys were fixed in 10% neutral-buffered formalin and embedded in paraffin wax. Three micron sections were stained with hematoxylin-eosin (H&E) and periodic acid-Schiff (PAS) and analyzed by light microscopy by a board certified pathologist.

[3] = tested on: ATP content in renal tissue; test: I/R model: ATP content assay of kidney tissue
Description: Sprague Dawley rats (250˜300 g) were assigned to four groups: (1) sham surgery group without I/R; (2) I/R+saline vehicle treatment; (3) I/R+SS-20 treatment; (4) I/R+SS-31 treatment. Each experimental group consisted of 8 rats. SS-20 and SS-31 (3 mg/kg, dissolved in saline) were administered to rats 30 min before ischemia and immediately before onset of reperfusion. The control rats were given saline alone on the same schedule.
Rats were anesthetized with a mixture of ketamine (90 mg/kg, i.p.) and xylazine (4 mg/kg, i.p.). The left renal vascular pedicle was occluded temporarily using a micro-clamp for 30 or 45 min. At the end of the ischemic period, reperfusion was established by removing of the clamp. At that time, the contralateral right kidney was removed. After 24 h reperfusion, animals were sacrificed and blood samples were obtained by cardiac puncture. Renal function was determined by blood urea nitrogen (BUN) and serum creatinine (BioAssay Systems DIUR-500 and DICT-500).
ATP Content Assay: The kidney tissue was immediately put into 10 ml 5% trichloroacetic acid with 10 mM DTT, 2 mM EDTA and cut into small pieces. The tissue was homogenized on ice, incubated for another 10 min, centrifuged for 10 min at 2000×g, and neutralized with 10N KOH to pH 7.6. After centrifugation for 10 min at 2000×g, aliquots of the resulting supernatant were stored at −80° C. ATP was measured by bioluminescence (ATP bioluminescent kit, Sigma, MO, USA).

[4] = tested on: CIN in glycerol-induced rhabdomyolysis animal model; test: CIN in glycerol-induced rhabdomyolysis model, Experiment 1
Description: In this model, SD rats with body weight of 300-400 g were dehydrated for 24 h followed by i.m. injection of 25% glycerol solution (v/v) at the dose of 10 ml/kg. Twenty-four hours (24 h) later, the rats were grouped and subjected to a contrast induced nephropathy study protocol as detailed in FIG. 20. The effects of SS-31 on ARI can be examined by comparing the renal functions in animals from group C with those from group B. Samples were analyzed by students t-test and differences were considered significant at p<0.05.
Renal function: Renal function was assessed by determining serum and urinary creatinine using Jiancheng Cr kit (Nanjing, P.R.C) at baseline, 24 h after dehydration and 48 h post the contrast dye administration. The creatinine clearance was calculated based on the Scr, Ucr and urinary volume. Urinary microalbumin concentration was determined by a competition ELISA assay.

D-Arg-2′6′Dmt-Lys-Phe-NH2 [SS-31] was tested, and the “renal mitochondrial oxygen consumption (state 3 respiration)” value [1] was “significantly improved oxygen consumption”, the “rats almost completely protected from the effects of the dye” value ([2]; 3 mg/kg ip before and after drug exposure) was “Six of nine” and the “PAS staining of kidney” value ([2]; dye-injected) was “intact brush borders and normal glomeruli”. For the same substance, the “apoptotic cells/hpf (TUNEL)” value ([2]; dye-injected) was “greatly attenuated”, the “ATP content in renal tissue” value ([3]; 1 h reperfusion following 45 min ischemia, vs vehicle) was “significantly higher” and the “ATP content in renal tissue” value ([3]; end of 15 min ischemia) was “not altered”. For the same substance, the urinary microalbumin level ([4]; T0, after 24 h dehydration, no peptide treatment at this time point) was 757.7±462.9 μg/24 h, the total albuminuria ([4]; T2, compared to the vehicle treated group) was “decreased significantly” and the “PAS staining of kidney” value ([4]; glycerin, dye) was “intact brush borders, normal glomeruli and minimum protein cast in the tubular cells”.
